In ChEMBL document CHEMBL1127239, “Novel cytotoxic annonaceous acetogenins: (2,4-cis and trans)-bulladecinones from annona bullata (annonaceae)” (Bioorg Med Chem Lett, 1994):
Converted amounts (≈) assume the structure as drawn.

Experiments:
MCF7 = assay: Compound was tested for cytotoxic activity against human breast carcinoma (MCF-7); type: functional; settings: for EC50: Homo sapiens, MCF7, read-out: ED50 (the source's name)
A549 = assay: Compound was tested for cytotoxic activity against human lung carcinoma (A-549); type: functional; settings: for EC50: Homo sapiens, A549, read-out: ED50 (the source's name)
HT-29 = assay: Compound was tested for cytotoxic activity against human colon adenocarcinoma (HT-29); type: functional; settings: for EC50: Homo sapiens, HT-29, read-out: ED50 (the source's name)
[1] = (§1) Compound was tested for lethal concentration in Brine shrimp lethality test (BST); type: organism-based; settings: artemia, in vivo
Artemia = assay: as §1; type: organism-based; settings: in vivo

Row | Compound | EC50 (MCF7) [ng/mL] | EC50 (A549) [ng/mL] | EC50 (HT-29) [ng/mL] | LC50 [1] [ng/mL] | ED50 (MCF7) [ng/mL] | ED50 (A549) [ng/mL] | ED50 (HT-29) [ng/mL] | LC50 (Artemia) [ng/mL]
1 | CCCCCCCCCCC(O)C(O)CCC(O)C1CCC(C2CCC(CCCCCCCC3CC(CC(C)=O)C(=O)O3)O2)O1 (stereo in doubt) | 1.07 (≈ 1.67 nM) | 0.0337 (≈ 0.0527 nM) | 229 (≈ 358 nM) | 137 (≈ 214 nM) | – | – | – | –
2 | CCCCCCCCCCC(O)C(O)CCC(O)C1CCC(C2CCC(CCCCCCCC3CC(CC(C)=O)C(=O)O3)O2)O1 (trans isomer) | – | – | – | – | 1.07 (≈ 1.67 nM) | 0.0337 (≈ 0.0527 nM) | 229 (≈ 358 nM) | 137 (≈ 214 nM)
3 | COc1cccc2c1C(=O)c1c(O)c3c(c(O)c1C2=O)C[C@@](O)(C(=O)CO)C[C@@H]3O[C@H]1C[C@H](N)[C@H](O)[C@H](C)O1 [DOXORUBICIN] | 13.8 (≈ 25.4 nM) | 0.153 (≈ 0.281 nM) | 0.558 (≈ 1.03 nM) | – | – | – | – | 80 (≈ 147 nM)
